System: CD45+ cells
Assay: CD45+ cell trafficking between maternal/fetal compartments in the OOC device in response to an infectious stimulus
Type: cell-based, human
Settings: LPS as infectious stimulus, preliminary study
Method: Immune cell migration and phenotyping by Cytometry by Time Of Flight (CyTOF) analysis: Preliminary CD45+ cell trafficking studies between the maternal/fetal compartments in the OOC device in response to an infectious stimulus (lipopolysaccharide [LPS]), to mimic bacterial infection, was conducted. In this model, LPS increased CD45+ cell influx into the fetal side and increased inflammation. Similar experiments can be repeated, and cell marker specificity can be tested through flow cytometry and immunocytochemistry^178. To study immunophenotypic changes associated with migrating immune cells, a multiplex tissue imaging technology can be used, e.g., Imaging Mass Cytometry (IMC) at an unprecedented resolution^179. IMC allows highly multiplexed, metal-based detection of 30 different protein markers at the same time, and enables high-dimensional, single-cell analysis of complex cell types without any background noise^180-184 (see Table 3 for a list of key/exemplary antibodies). For IMC, the top PDMS part can be removed so that fixed/attached cells stay on the histological glass slides on which the OOC device is built. IMC technology can be introduced to the OOC field, which allows for the analysis of cellular-level changes in OOC.

lipopolysaccharide [LPS]
CD45+ cell influx into the fetal side: increased
inflammation: increased

Reference: patent US20260117171A1, “Human Pregnancy on a Chip for Normal and Disease Biomarker Discovery and Preclinical Trials” (Board of Regents, The University of Texas System, priority 2023, published 2026)
